# Reference: ChEMBL document CHEMBL1201861, “Genomics of Drug Sensitity in Cancer screening data, Wellcome Trust Sanger Institute”
# Tests used:
# Experiment in all cases: cells
# Format in all cases: functional, cell-based
# NCI-H1793 = settings: Homo sapiens;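 further: cell growth inhibition, read out by a cell viability assay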
# Description: SANGER: Inhibition of human NCI-H1793 cell growth in a cell viability assay.
# LN-405 = settings: Homo sapiens
# Description: SANGER: Inhibition of human LN-405 cell growth in a cell viability assay.
# KP-4 = settings: Homo sapiens;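 further: human KP-4 cells, with growth inhibition read out through a cell viability assay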
# Description: SANGER: Inhibition of human KP-4 cell growth in a cell viability assay.
# SNU-449 = settings: Homo sapiens
# Description: SANGER: Inhibition of human SNU-449 cell growth in a cell viability assay.
# SCC-9 = settings: Homo sapiens;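 further: Read-out is a cell viability assay, with values giving inhibition of cell growth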
# Description: SANGER: Inhibition of human SCC-9 cell growth in a cell viability assay.
# HuP-T3 = settings: Homo sapiens;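 further: HuP-T3 cell growth inhibition, read out with a cell viability assay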
# Description: SANGER: Inhibition of human HuP-T3 cell growth in a cell viability assay.
# HCC1954 = settings: Homo sapiens;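 further: growth inhibition of human HCC1954 cells, read out with a cell viability assay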
# Description: SANGER: Inhibition of human HCC1954 cell growth in a cell viability assay.
# IGROV-1 = settings: Homo sapiens;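 further: reduction of IGROV-1 cell growth, read out with a viability assay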
# Description: SANGER: Inhibition of human IGROV-1 cell growth in a cell viability assay.
# HLE = settings: Homo sapiens;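 further: growth inhibition of human HLE cells, read out by a cell viability assay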
# Description: SANGER: Inhibition of human HLE cell growth in a cell viability assay.
# HSC-2 = settings: Homo sapiens;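 further: growth inhibition of human HSC-2 cells, read out by a cell viability assay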
# Description: SANGER: Inhibition of human HSC-2 cell growth in a cell viability assay.
# MDA-MB-157 = settings: Homo sapiens
# Description: SANGER: Inhibition of human MDA-MB-157 cell growth in a cell viability assay.
# HOS = settings: Homo sapiens;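 further: growth inhibition of human HOS cells, read out with a cell viability assay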
# Description: SANGER: Inhibition of human HOS cell growth in a cell viability assay.
# DU-145 = settings: Homo sapiens
# Description: SANGER: Inhibition of human DU-145 cell growth in a cell viability assay.
# 23132-87 = settings: Homo sapiens
# Description: SANGER: Inhibition of human 23132-87 cell growth in a cell viability assay.
# ESS-1 = settings: Homo sapiens;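 further: growth inhibition of human ESS-1 cells, read out by a cell viability assay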
# Description: SANGER: Inhibition of human ESS-1 cell growth in a cell viability assay.
# NB14 = settings: Homo sapiens;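 further: growth inhibition of NB14 cells measured with a cell viability assay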
# Description: SANGER: Inhibition of human NB14 cell growth in a cell viability assay.
# SK-N-AS = settings: Homo sapiens;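 further: growth inhibition of human SK-N-AS cells, measured with a cell viability assay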
# Description: SANGER: Inhibition of human SK-N-AS cell growth in a cell viability assay.
# UO-31 = settings: Homo sapiens;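 further: cell viability assay measuring inhibition of cell growth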
# Description: SANGER: Inhibition of human U031 cell growth in a cell viability assay.
# HT-1376 = settings: Homo sapiens
# Description: SANGER: Inhibition of human HT-1376 cell growth in a cell viability assay.
# CWR22R = settings: Homo sapiens, 22Rv1;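 further: growth inhibition of 22Rv1 cells, read out with a cell viability assay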
# Description: SANGER: Inhibition of human 22RV1 cell growth in a cell viability assay.
# SK-MEL-24 = settings: Homo sapiens;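 further: growth inhibition read out by a cell viability assay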
# Description: SANGER: Inhibition of human SK-MEL-24 cell growth in a cell viability assay.
# NCI-H1563 = settings: Homo sapiens;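 further: growth inhibition of human NCI-H1563 cells, read out with a cell viability assay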
# Description: SANGER: Inhibition of human NCI-H1563 cell growth in a cell viability assay.
# CAL-51 = settings: Homo sapiens;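 further: human CAL-51 cell line, growth inhibition read out via a cell viability assay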
# Description: SANGER: Inhibition of human CAL-51 cell growth in a cell viability assay.
# KYSE-450 = settings: Homo sapiens;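 further: cell growth inhibition measured by a viability assay in human KYSE-450 cells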
# Description: SANGER: Inhibition of human KYSE-450 cell growth in a cell viability assay.
# CAL-85-1 = settings: Homo sapiens;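 further: growth inhibition of human CAL-85-1 cells, read out with a cell viability assay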
# Description: SANGER: Inhibition of human CAL-85-1 cell growth in a cell viability assay.
# HT-29 = settings: Homo sapiens;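 further: growth inhibition of human HT-29 cells, read out by a cell viability assay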
# Description: SANGER: Inhibition of human HT-29 cell growth in a cell viability assay.
# LU-99A = settings: Homo sapiens;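 further: growth inhibition of LU-99A cells, read out with a cell viability assay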
# Description: SANGER: Inhibition of human LU-99A cell growth in a cell viability assay.
# CaR-1 = settings: Homo sapiens;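 further: growth inhibition of human CaR-1 cancer cells, read out with a cell viability assay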
# Description: SANGER: Inhibition of human CaR-1 cell growth in a cell viability assay.
# SW626 = settings: Homo sapiens;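 further: growth inhibition of SW626 cells, measured with a cell viability assay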
# Description: SANGER: Inhibition of human SW626 cell growth in a cell viability assay.
# ASPC1 = settings: Homo sapiens;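 further: growth inhibition of AsPC-1 cells, read out with a cell viability assay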
# Description: SANGER: Inhibition of human AsPC-1 cell growth in a cell viability assay.
# G-361 = settings: Homo sapiens
# CAL-62 = settings: Homo sapiens;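 further: growth inhibition of CAL-62 cells, read out with a cell viability assay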
# Description: SANGER: Inhibition of human CAL-62 cell growth in a cell viability assay.
# SW48 = settings: Homo sapiens;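 further: growth inhibition of SW48 cells, read out with a cell viability assay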
# Description: SANGER: Inhibition of human SW48 cell growth in a cell viability assay.
# SN12C = settings: Homo sapiens;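 further: growth inhibition of human SN12C cells, measured by a cell viability assay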
# Description: SANGER: Inhibition of human SN12C cell growth in a cell viability assay.
# A-375 = settings: Homo sapiens;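 further: growth inhibition of A375 cells, read out with a cell viability assay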
# Description: SANGER: Inhibition of human A375 cell growth in a cell viability assay.
# HT-3 = settings: Homo sapiens;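 further: growth inhibition measured with a cell viability readout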
# Description: SANGER: Inhibition of human HT-3 cell growth in a cell viability assay.
# KOSC-2 = settings: Homo sapiens;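 further: growth inhibition of KOSC-2 cells, read out by a cell viability assay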
# Description: SANGER: Inhibition of human KOSC-2 cell growth in a cell viability assay.
# HuO9 = settings: Homo sapiens;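 further: growth inhibition of HuO9 cells, read out with a cell viability assay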
# Description: SANGER: Inhibition of human HuO9 cell growth in a cell viability assay.
# SAOS-2 = settings: Homo sapiens;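 further: growth inhibition of human Saos-2 cells determined by a cell viability assay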
# Description: SANGER: Inhibition of human Saos-2 cell growth in a cell viability assay.
# U-118-MG = settings: Homo sapiens
# Description: SANGER: Inhibition of human U-118-MG cell growth in a cell viability assay.
# HGC-27 = settings: Homo sapiens;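 further: growth inhibition of human HGC-27 cells, read out in a cell viability assay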
# Description: SANGER: Inhibition of human HGC-27 cell growth in a cell viability assay.
# NCI-H28 = settings: Homo sapiens;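 further: growth inhibition of human NCI-H28 cells, read out as cell viability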
# Description: SANGER: Inhibition of human NCI-H28 cell growth in a cell viability assay.
# AU565 = settings: Homo sapiens;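 further: cell viability assay measuring growth inhibition of human AU565 cells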
# Description: SANGER: Inhibition of human AU565 cell growth in a cell viability assay.
# GCT = settings: Homo sapiens;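 further: GCT cell line proliferation inhibition, read out with a cell viability assay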
# Description: SANGER: Inhibition of human GCT cell growth in a cell viability assay.
# HCC70 = settings: Homo sapiens;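 further: cell viability assay measuring how strongly the compound suppresses proliferation of HCC70 cells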
# Description: SANGER: Inhibition of human HCC70 cell growth in a cell viability assay.
# A673 = settings: Homo sapiens;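 further: growth inhibition of human A673 cells, read out through a cell viability assay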
# Description: SANGER: Inhibition of human A673 cell growth in a cell viability assay.
# MIA PaCa-2 = settings: Homo sapiens;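 further: growth inhibition of MIA PaCa-2 cells, read out with a cell viability assay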
# Description: SANGER: Inhibition of human MIA-PaCa-2 cell growth in a cell viability assay.
# A204 = settings: Homo sapiens;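 further: growth inhibition of human A204 cells, read out with a cell viability assay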
# Description: SANGER: Inhibition of human A204 cell growth in a cell viability assay.
# NCI-H1792 = settings: Homo sapiens;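 further: growth inhibition of human NCI-H1792 cells, read out as cell viability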
# Description: SANGER: Inhibition of human NCI-H1792 cell growth in a cell viability assay.
# FTC-133 = settings: Homo sapiens
# RO82-W-1 = settings: Homo sapiens;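 further: growth inhibition of human RO82-W-1 cells, measured with a cell viability assay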
# Description: SANGER: Inhibition of human RO82-W-1 cell growth in a cell viability assay.
# HTC-C3 = settings: Homo sapiens;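 further: inhibition of cell growth, read out with a cell viability assay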
# Description: SANGER: Inhibition of human HTC-C3 cell growth in a cell viability assay.
smiles,measurement,setting,value
Cn1cc(/C=C2\C(=O)Nc3cccnc32)c2ccccc21,IC50,NCI-H1793,> 2 µM
same,IC50,LN-405,> 2 µM
same,IC50,KP-4,> 2 µM
same,IC50,SNU-449,> 2 µM
same,IC50,SCC-9,> 2 µM
same,IC50,HuP-T3,> 2 µM
same,IC50,HCC1954,> 2 µM
same,IC50,IGROV-1,> 2 µM
same,IC50,HLE,> 2 µM
same,IC50,HSC-2,> 2 µM
same,IC50,MDA-MB-157,> 2 µM
same,IC50,HOS,> 2 µM
same,IC50,DU-145,> 2 µM
same,IC50,23132-87,> 2 µM
same,IC50,ESS-1,> 2 µM
same,IC50,NB14,> 2 µM
same,IC50,SK-N-AS,> 2 µM
same,IC50,UO-31,> 2 µM
same,IC50,HT-1376,> 2 µM
same,IC50,CWR22R,> 2 µM
same,IC50,SK-MEL-24,> 2 µM
same,IC50,NCI-H1563,> 2 µM
same,IC50,CAL-51,> 2 µM
same,IC50,KYSE-450,> 2 µM
same,IC50,CAL-85-1,> 2 µM
same,IC50,HT-29,> 2 µM
same,IC50,LU-99A,> 2 µM
same,IC50,CaR-1,> 2 µM
same,IC50,SW626,> 2 µM
same,IC50,ASPC1,> 2 µM
same,IC50,G-361,0.211 µM
same,IC50,CAL-62,> 2 µM
same,IC50,SW48,> 2 µM
same,IC50,SN12C,> 2 µM
same,IC50,A-375,> 2 µM
same,IC50,HT-3,> 2 µM
same,IC50,KOSC-2,> 2 µM
same,IC50,HuO9,> 2 µM
same,IC50,SAOS-2,> 2 µM
same,IC50,U-118-MG,> 2 µM
same,IC50,HGC-27,> 2 µM
same,IC50,NCI-H28,> 2 µM
same,IC50,AU565,> 2 µM
same,IC50,GCT,> 2 µM
same,IC50,HCC70,> 2 µM
same,IC50,A673,> 2 µM
same,IC50,MIA PaCa-2,> 2 µM
same,IC50,A204,> 2 µM
same,IC50,NCI-H1792,> 2 µM
same,IC50,FTC-133,> 2 µM
same,IC50,RO82-W-1,> 2 µM
same,IC50,HTC-C3,> 2 µM
NC(=O)c1ncn([C@@H]2O[C@H](COP(=O)(O)O)[C@@H](O)[C@H]2O)c1N,IC50,NCI-H1793,> 2000 µM
same,IC50,LN-405,> 2000 µM
same,IC50,KP-4,> 2000 µM
same,IC50,SNU-449,> 2000 µM
same,IC50,SCC-9,> 2000 µM
same,IC50,HuP-T3,1350 µM
same,IC50,HCC1954,> 2000 µM
same,IC50,IGROV-1,> 2000 µM
same,IC50,HLE,> 2000 µM
same,IC50,HSC-2,846 µM
same,IC50,MDA-MB-157,1210 µM
same,IC50,HOS,> 2000 µM
same,IC50,DU-145,> 2000 µM
same,IC50,23132-87,> 2000 µM
same,IC50,ESS-1,> 2000 µM
same,IC50,NB14,1450 µM
same,IC50,SK-N-AS,> 2000 µM
same,IC50,UO-31,766 µM
same,IC50,HT-1376,> 2000 µM
same,IC50,CWR22R,> 2000 µM
same,IC50,SK-MEL-24,> 2000 µM
same,IC50,KYSE-450,1300 µM
same,IC50,HT-29,> 2000 µM
same,IC50,LU-99A,> 2000 µM
same,IC50,CaR-1,1650 µM
same,IC50,SW626,> 2000 µM
same,IC50,ASPC1,1330 µM
same,IC50,CAL-62,> 2000 µM
same,IC50,SW48,932 µM
same,IC50,SN12C,> 2000 µM
same,IC50,A-375,> 2000 µM
same,IC50,HT-3,472 µM
same,IC50,KOSC-2,526 µM
same,IC50,HuO9,1970 µM
same,IC50,SAOS-2,> 2000 µM
same,IC50,U-118-MG,1430 µM
same,IC50,HGC-27,1320 µM
same,IC50,NCI-H28,1040 µM
same,IC50,AU565,357 µM
same,IC50,GCT,1390 µM
same,IC50,HCC70,1270 µM
same,IC50,A673,> 2000 µM
same,IC50,MIA PaCa-2,> 2000 µM
same,IC50,A204,> 2000 µM
same,IC50,NCI-H1792,1590 µM
same,IC50,RO82-W-1,> 2000 µM
same,IC50,HTC-C3,252 µM
CC[C@@]1(O)C(=O)OCc2c1cc1n(c2=O)Cc2cc3ccccc3nc2-1 [CAMPTOTHECIN],IC50,NCI-H1793,0.0272 µM
same,IC50,LN-405,> 0.1 µM
same,IC50,KP-4,0.00316 µM
same,IC50,SCC-9,0.0332 µM
same,IC50,HuP-T3,0.0364 µM
same,IC50,IGROV-1,0.0363 µM
same,IC50,HLE,0.00575 µM
same,IC50,HSC-2,0.0117 µM
same,IC50,MDA-MB-157,0.00757 µM
same,IC50,HOS,0.0014 µM
same,IC50,DU-145,> 0.1 µM
same,IC50,23132-87,0.0195 µM
same,IC50,ESS-1,0.00708 µM
same,IC50,NB14,0.000907 µM
same,IC50,SK-N-AS,0.00538 µM
same,IC50,UO-31,0.0341 µM
same,IC50,HT-1376,> 0.1 µM
same,IC50,CWR22R,0.00931 µM
same,IC50,SK-MEL-24,0.0385 µM
same,IC50,CAL-51,0.0297 µM
same,IC50,KYSE-450,0.0237 µM
same,IC50,CAL-85-1,> 0.1 µM
same,IC50,HT-29,0.0855 µM
same,IC50,LU-99A,0.00385 µM
same,IC50,CaR-1,0.00643 µM
same,IC50,SW626,0.0769 µM
same,IC50,G-361,> 0.1 µM
same,IC50,CAL-62,0.000984 µM
same,IC50,SW48,0.00302 µM
same,IC50,SN12C,0.0045 µM
same,IC50,A-375,0.00369 µM
same,IC50,HT-3,0.000212 µM
same,IC50,KOSC-2,0.00439 µM
same,IC50,HuO9,0.00288 µM
same,IC50,SAOS-2,0.0178 µM
same,IC50,U-118-MG,0.019 µM
same,IC50,HGC-27,0.00407 µM
same,IC50,NCI-H28,0.0387 µM
same,IC50,AU565,0.00368 µM
same,IC50,GCT,0.00502 µM
same,IC50,HCC70,0.0455 µM
same,IC50,A673,0.000815 µM
same,IC50,MIA PaCa-2,0.00276 µM
same,IC50,A204,0.00452 µM
same,IC50,NCI-H1792,0.0401 µM
same,IC50,FTC-133,0.00457 µM
same,IC50,RO82-W-1,0.0149 µM
same,IC50,HTC-C3,0.0315 µM
Cn1c(=O)n(-c2ccc(C(C)(C)C#N)cc2)c2c3cc(-c4cnc5ccccc5c4)ccc3ncc21 [DACTOLISIB],IC50,NCI-H1793,0.0128 µM
same,IC50,LN-405,0.0639 µM
same,IC50,KP-4,0.007 µM
same,IC50,SNU-449,0.0758 µM
same,IC50,SCC-9,0.293 µM
same,IC50,HuP-T3,1.12 µM
same,IC50,HCC1954,0.513 µM
same,IC50,IGROV-1,0.136 µM
same,IC50,HLE,0.0535 µM
same,IC50,HSC-2,0.0959 µM
same,IC50,MDA-MB-157,0.0354 µM
same,IC50,HOS,0.0211 µM
same,IC50,DU-145,> 2 µM
same,IC50,ESS-1,0.135 µM
same,IC50,NB14,0.0883 µM
same,IC50,SK-N-AS,0.137 µM
same,IC50,UO-31,0.0967 µM
same,IC50,HT-1376,0.385 µM
same,IC50,CWR22R,0.0491 µM
same,IC50,SK-MEL-24,0.517 µM
same,IC50,NCI-H1563,0.105 µM
same,IC50,CAL-51,0.0239 µM
same,IC50,KYSE-450,0.0552 µM
same,IC50,CAL-85-1,0.0925 µM
same,IC50,HT-29,> 2 µM
same,IC50,LU-99A,0.117 µM
same,IC50,CaR-1,0.0682 µM
same,IC50,SW626,0.176 µM
same,IC50,ASPC1,0.0302 µM
same,IC50,CAL-62,0.0369 µM
same,IC50,SW48,0.201 µM
same,IC50,SN12C,0.0906 µM
same,IC50,A-375,0.0239 µM
same,IC50,HT-3,0.38 µM
same,IC50,KOSC-2,0.07 µM
same,IC50,HuO9,0.0268 µM
same,IC50,SAOS-2,0.179 µM
same,IC50,U-118-MG,0.134 µM
same,IC50,HGC-27,0.0181 µM
same,IC50,NCI-H28,0.0344 µM
same,IC50,AU565,0.213 µM
same,IC50,GCT,0.0137 µM
same,IC50,HCC70,0.409 µM
same,IC50,A673,> 2 µM
same,IC50,MIA PaCa-2,0.0845 µM
same,IC50,A204,0.0285 µM
same,IC50,NCI-H1792,0.0662 µM
same,IC50,FTC-133,0.0251 µM
same,IC50,RO82-W-1,0.0599 µM
same,IC50,HTC-C3,0.117 µM
CC(=O)c1c(C)c2cnc(Nc3ccc(N4CCNCC4)cn3)nc2n(C2CCCC2)c1=O [PALBOCICLIB],IC50,NCI-H1793,> 4 µM
same,IC50,LN-405,> 4 µM
same,IC50,SNU-449,> 4 µM
same,IC50,SCC-9,> 4 µM
same,IC50,HuP-T3,> 4 µM
same,IC50,HCC1954,> 4 µM
same,IC50,IGROV-1,> 4 µM
same,IC50,HLE,> 4 µM
same,IC50,HSC-2,> 4 µM
same,IC50,MDA-MB-157,> 4 µM
same,IC50,HOS,1.35 µM
same,IC50,DU-145,3.46 µM
same,IC50,ESS-1,> 4 µM
same,IC50,NB14,0.484 µM
same,IC50,SK-N-AS,0.388 µM
same,IC50,HT-1376,> 4 µM
same,IC50,CWR22R,1.68 µM
same,IC50,NCI-H1563,> 4 µM
same,IC50,CAL-51,1.75 µM
same,IC50,KYSE-450,> 4 µM
same,IC50,CAL-85-1,> 4 µM
same,IC50,HT-29,> 4 µM
same,IC50,LU-99A,> 4 µM
same,IC50,CaR-1,> 4 µM
same,IC50,SW626,> 4 µM
same,IC50,ASPC1,0.253 µM
same,IC50,CAL-62,1.61 µM
same,IC50,SW48,> 4 µM
same,IC50,SN12C,1.01 µM
same,IC50,HT-3,> 4 µM
same,IC50,KOSC-2,0.467 µM
same,IC50,HuO9,> 4 µM
same,IC50,SAOS-2,> 4 µM
same,IC50,U-118-MG,> 4 µM
same,IC50,HGC-27,0.565 µM
same,IC50,NCI-H28,> 4 µM
same,IC50,AU565,> 4 µM
same,IC50,GCT,> 4 µM
same,IC50,HCC70,> 4 µM
same,IC50,A673,> 4 µM
same,IC50,MIA PaCa-2,2.36 µM
same,IC50,A204,0.634 µM
same,IC50,NCI-H1792,> 4 µM
same,IC50,FTC-133,> 4 µM
same,IC50,RO82-W-1,2.62 µM
same,IC50,HTC-C3,0.433 µM
